Assay results: ChEMBL document CHEMBL3407472, “Multi-parameter optimization of aza-follow-ups to BI 207524, a thumb pocket 1 HCV NS5B polymerase inhibitor. Part 2: Impact of lipophilicity on promiscuity and in vivo toxicity” (Bioorg Med Chem Lett, 2015)
pEC50, pIC50: −log10 of the molar value. Values belong to the compound of their own block, whether it stands above or below them.

Columns and labels:
[1] = target: T1, Amine oxidase [flavin-containing] A (Homo sapiens, UniProt P21397); experiment: Inhibition of MAO-A (unknown origin)
T1 sequence (P21397 whole entry): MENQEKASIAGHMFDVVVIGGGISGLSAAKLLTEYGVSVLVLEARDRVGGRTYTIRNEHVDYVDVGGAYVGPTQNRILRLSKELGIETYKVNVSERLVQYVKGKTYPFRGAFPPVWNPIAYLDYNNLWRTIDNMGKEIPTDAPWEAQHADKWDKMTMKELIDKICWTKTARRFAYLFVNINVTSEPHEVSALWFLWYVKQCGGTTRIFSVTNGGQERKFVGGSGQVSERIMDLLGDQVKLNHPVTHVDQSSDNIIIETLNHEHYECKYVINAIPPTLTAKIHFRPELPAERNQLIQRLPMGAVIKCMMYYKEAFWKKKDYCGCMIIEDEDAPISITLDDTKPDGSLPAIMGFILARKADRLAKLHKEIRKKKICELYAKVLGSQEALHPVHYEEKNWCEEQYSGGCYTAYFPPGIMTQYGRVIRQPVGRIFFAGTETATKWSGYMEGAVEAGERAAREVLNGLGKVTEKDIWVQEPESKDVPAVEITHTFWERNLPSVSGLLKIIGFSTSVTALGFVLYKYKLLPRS

[2] = target: T2, Polyunsaturated fatty acid 5-lipoxygenase (Homo sapiens, UniProt P09917); experiment: Inhibition of 5-LO (unknown origin)
T2 sequence (P09917 whole entry): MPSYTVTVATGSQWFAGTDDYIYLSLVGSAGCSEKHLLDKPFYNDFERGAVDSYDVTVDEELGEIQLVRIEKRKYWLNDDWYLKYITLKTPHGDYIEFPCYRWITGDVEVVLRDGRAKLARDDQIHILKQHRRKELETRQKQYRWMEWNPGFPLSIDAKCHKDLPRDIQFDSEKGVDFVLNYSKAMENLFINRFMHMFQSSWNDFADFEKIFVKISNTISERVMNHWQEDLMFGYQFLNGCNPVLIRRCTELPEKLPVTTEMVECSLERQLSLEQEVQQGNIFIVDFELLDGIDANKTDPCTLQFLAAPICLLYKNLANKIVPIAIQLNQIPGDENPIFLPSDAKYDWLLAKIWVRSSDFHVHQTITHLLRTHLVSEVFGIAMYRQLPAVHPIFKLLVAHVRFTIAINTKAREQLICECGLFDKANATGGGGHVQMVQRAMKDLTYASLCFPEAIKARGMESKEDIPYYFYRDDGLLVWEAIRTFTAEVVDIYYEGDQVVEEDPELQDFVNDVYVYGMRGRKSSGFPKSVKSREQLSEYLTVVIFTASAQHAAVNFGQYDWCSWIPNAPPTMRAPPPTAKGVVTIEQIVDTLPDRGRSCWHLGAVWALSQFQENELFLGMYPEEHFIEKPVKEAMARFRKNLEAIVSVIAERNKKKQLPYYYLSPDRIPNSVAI

[3] = target: D(1A) dopamine receptor (Homo sapiens, UniProt P21728); experiment: Inhibition of dopamine D1 receptor (unknown origin)
D(1A) dopamine receptor, sequence (P21728 whole entry): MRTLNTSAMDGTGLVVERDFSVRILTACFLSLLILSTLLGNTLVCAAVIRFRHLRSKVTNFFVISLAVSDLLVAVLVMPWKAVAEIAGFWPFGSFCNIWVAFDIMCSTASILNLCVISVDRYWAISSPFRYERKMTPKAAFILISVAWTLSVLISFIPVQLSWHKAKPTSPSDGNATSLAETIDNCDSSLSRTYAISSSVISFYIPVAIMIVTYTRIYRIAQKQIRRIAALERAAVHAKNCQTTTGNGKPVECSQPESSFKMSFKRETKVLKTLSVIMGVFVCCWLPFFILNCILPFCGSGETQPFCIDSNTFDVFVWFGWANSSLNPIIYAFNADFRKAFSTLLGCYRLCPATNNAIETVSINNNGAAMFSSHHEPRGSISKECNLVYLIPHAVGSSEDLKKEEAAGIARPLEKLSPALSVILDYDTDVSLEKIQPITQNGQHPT

[4] = target: T3, Prostaglandin G/H synthase 2 (Homo sapiens, UniProt P35354); experiment: Inhibition of COX2 (unknown origin)
T3 sequence (P35354 whole entry): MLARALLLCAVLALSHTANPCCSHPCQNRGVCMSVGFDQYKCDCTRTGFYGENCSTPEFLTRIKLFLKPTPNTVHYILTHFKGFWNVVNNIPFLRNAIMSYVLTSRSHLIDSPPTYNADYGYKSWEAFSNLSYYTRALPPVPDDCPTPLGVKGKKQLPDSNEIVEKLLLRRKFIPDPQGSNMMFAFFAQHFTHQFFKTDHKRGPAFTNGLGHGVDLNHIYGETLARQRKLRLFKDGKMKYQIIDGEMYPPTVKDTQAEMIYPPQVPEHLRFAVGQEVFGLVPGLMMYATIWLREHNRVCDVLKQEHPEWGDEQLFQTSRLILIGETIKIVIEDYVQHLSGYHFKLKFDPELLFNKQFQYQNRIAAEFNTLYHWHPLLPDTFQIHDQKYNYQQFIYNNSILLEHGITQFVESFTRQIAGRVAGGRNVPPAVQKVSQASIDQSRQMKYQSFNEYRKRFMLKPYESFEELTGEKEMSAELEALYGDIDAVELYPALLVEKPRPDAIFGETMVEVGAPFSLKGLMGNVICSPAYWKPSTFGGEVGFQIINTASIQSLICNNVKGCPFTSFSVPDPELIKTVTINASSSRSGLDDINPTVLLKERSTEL

[5] = target: T4, Cathepsin G (Homo sapiens, UniProt P08311); experiment: Inhibition of cathepsin G (unknown origin)
T4 sequence (P08311 whole entry): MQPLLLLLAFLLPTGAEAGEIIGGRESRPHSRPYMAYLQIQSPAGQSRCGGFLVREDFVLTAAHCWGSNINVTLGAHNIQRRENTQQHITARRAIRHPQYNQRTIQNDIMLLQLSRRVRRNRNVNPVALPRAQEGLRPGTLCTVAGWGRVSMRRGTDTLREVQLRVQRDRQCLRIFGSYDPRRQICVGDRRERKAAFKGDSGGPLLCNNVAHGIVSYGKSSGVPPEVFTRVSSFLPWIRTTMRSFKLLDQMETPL

[6] = target: T5, Alpha-2A adrenergic receptor (Homo sapiens, UniProt P08913); experiment: Inhibition of alpha2A adrenergic receptor (unknown origin)
T5 sequence (P08913 whole entry): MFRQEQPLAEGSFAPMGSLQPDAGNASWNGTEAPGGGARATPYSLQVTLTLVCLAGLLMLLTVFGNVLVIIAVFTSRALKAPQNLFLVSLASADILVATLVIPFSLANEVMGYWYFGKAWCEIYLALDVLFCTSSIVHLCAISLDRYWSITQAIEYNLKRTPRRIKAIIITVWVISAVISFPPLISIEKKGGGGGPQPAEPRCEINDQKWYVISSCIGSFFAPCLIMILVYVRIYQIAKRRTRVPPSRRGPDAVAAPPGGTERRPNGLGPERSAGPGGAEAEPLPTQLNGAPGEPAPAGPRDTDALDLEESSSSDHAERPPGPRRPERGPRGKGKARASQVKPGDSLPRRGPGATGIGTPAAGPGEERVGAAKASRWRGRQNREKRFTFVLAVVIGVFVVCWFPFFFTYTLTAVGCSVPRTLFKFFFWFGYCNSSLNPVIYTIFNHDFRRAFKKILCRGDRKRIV

[7] = target: T6, Glucocorticoid receptor (Homo sapiens, UniProt P04150); experiment: Inhibition of glucocorticoid receptor (unknown origin)
T6 sequence (P04150 whole entry): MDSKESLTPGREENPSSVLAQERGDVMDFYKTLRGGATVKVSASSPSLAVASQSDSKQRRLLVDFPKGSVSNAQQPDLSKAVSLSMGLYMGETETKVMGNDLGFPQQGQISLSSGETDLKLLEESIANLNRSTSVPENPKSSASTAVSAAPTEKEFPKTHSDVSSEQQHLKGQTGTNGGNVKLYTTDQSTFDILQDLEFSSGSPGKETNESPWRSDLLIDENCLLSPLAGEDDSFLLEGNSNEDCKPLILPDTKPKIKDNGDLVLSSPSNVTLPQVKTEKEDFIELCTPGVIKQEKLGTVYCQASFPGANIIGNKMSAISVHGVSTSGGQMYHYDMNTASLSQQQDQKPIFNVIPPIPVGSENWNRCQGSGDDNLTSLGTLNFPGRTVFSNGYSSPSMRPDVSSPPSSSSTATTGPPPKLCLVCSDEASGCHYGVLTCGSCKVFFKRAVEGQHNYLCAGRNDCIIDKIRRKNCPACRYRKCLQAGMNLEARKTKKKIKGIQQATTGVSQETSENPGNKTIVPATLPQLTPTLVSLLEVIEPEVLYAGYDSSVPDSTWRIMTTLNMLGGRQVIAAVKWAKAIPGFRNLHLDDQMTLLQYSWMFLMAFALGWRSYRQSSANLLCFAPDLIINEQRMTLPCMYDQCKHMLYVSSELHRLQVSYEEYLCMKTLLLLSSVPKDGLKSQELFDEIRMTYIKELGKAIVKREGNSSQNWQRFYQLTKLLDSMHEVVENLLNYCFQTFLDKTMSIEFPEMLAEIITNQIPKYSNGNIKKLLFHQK

[8] = target: GABA-A receptor; agonist GABA site; experiment: Inhibition of GABAA receptor (unknown origin); type: protein-complex assay, Homo sapiens
[9] = Bioavailability in cynomolgous monkey at 5 mg/kg, po and 2 mg/kg, iv; type: ADME, organism-based, Macaca fascicularis; conditions: cynomolgus monkey, in vivo
[10] = target: 5-hydroxytryptamine receptor 2A (Homo sapiens, UniProt P28223); experiment: Inhibition of serotonin 5-HT2A receptor (unknown origin)
5-hydroxytryptamine receptor 2A, sequence (P28223 whole entry): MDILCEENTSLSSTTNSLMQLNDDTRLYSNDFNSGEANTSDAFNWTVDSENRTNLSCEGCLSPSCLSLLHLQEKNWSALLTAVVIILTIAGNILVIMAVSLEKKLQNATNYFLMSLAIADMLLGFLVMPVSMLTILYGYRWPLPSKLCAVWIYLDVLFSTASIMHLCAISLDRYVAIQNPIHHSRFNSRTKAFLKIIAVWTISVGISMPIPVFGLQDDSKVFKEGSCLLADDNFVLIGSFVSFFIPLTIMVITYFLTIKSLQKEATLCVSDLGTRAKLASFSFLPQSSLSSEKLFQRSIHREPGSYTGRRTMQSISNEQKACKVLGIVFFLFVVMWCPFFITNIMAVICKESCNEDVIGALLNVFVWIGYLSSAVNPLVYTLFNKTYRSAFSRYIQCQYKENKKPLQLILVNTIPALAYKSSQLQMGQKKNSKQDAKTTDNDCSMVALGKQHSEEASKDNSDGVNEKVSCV

[11] = AUC in cynomolgous monkey at 5 mg/kg, po and 2 mg/kg, iv; type: ADME, organism-based, Macaca fascicularis; conditions: cynomolgus monkey, plasma
[12] = Clearance in rat at 5 mg/kg, po and 2 mg/kg, iv; type: ADME, organism-based; conditions: in vivo
[13] = Volume of distribution at steady state in cynomolgous monkey at 5 mg/kg, po and 2 mg/kg, iv; type: ADME, organism-based, Macaca fascicularis; conditions: cynomolgus monkey, in vivo, read-out: Vdss
[14] = Half life in dog at 5 mg/kg, po and 2 mg/kg, iv; type: ADME, organism-based, Canis lupus familiaris; conditions: in vivo
[15] = Cmax in rat at 5 mg/kg, po and 2 mg/kg, iv; type: ADME, organism-based; conditions: in vivo
[16] = Clearance in cynomolgous monkey at 5 mg/kg, po and 2 mg/kg, iv; type: ADME, organism-based, Macaca fascicularis; conditions: cynomolgus monkey, in vivo
[17] = AUC in dog at 5 mg/kg, po and 2 mg/kg, iv; type: ADME, organism-based, Canis lupus familiaris; conditions: plasma
[18] = Clearance in dog at 5 mg/kg, po and 2 mg/kg, iv; type: ADME, organism-based, Canis lupus familiaris; conditions: in vivo
[19] = Volume of distribution at steady state in dog at 5 mg/kg, po and 2 mg/kg, iv; type: ADME, organism-based, Canis lupus familiaris; conditions: in vivo, read-out: Vdss
[20] = Cmax in dog at 5 mg/kg, po and 2 mg/kg, iv; type: ADME, organism-based, Canis lupus familiaris; conditions: in vivo
[21] = system: Hepatitis C virus; experiment: Antiviral activity against Hepatitis C virus genotype 1a infected in human Huh cells assessed as inhibition of viral replication by RT-PCR-based replicon assay; type: functional, cell-based, Hepacivirus hominis; conditions: subtype 1a
[22] = Half life in cynomolgous monkey at 5 mg/kg, po and 2 mg/kg, iv; type: ADME, organism-based, Macaca fascicularis; conditions: cynomolgus monkey, in vivo
[23] = Lipophilicity, log D of the compound; type: physicochemical; conditions: octanol/water
[24] = Cmax in rat at 2 mg/kg, po each in 0.5% Methylcellulose and 0.3% Tween-80 and 1% N-methylpyrrolidone; type: ADME, organism-based; set-up: dose 2 mg/kg, route oral; conditions: in vivo
[25] = Half life in rat liver microsomes at 2 uM; type: ADME
[26] = Lipophilicity, log D of the compound at pH 7.4; type: physicochemical; conditions: buffer
[27] = system: Hepatitis C virus; experiment: Antiviral activity against Hepatitis C virus genotype 1b infected in human Huh cells assessed as inhibition of viral replication by RT-PCR-based replicon assay; type: functional, cell-based, Hepacivirus hominis
[28] = Half life in dog liver microsomes at 2 uM; type: ADME, Canis lupus familiaris
[29] = AUC in rat at 5 mg/kg, po and 2 mg/kg, iv; type: ADME, organism-based; conditions: plasma
[30] = Bioavailability in dog at 5 mg/kg, po and 2 mg/kg, iv; type: ADME, organism-based, Canis lupus familiaris; conditions: in vivo
[31] = Half life in rat at 5 mg/kg, po and 2 mg/kg, iv; type: ADME, organism-based; conditions: in vivo
[32] = Half life in cynomolgous monkey liver microsomes at 2 uM; type: ADME, Macaca fascicularis; conditions: cynomolgus monkey
[33] = Ratio of drug uptake in liver to plasma of rat at 5 mg/kg, po and 2 mg/kg, iv after 6 to 8 hrs; type: ADME, organism-based
[34] = Cmax in cynomolgous monkey at 5 mg/kg, po and 2 mg/kg, iv; type: ADME, organism-based, Macaca fascicularis; conditions: cynomolgus monkey, in vivo
[35] = Bioavailability in rat at 5 mg/kg, po and 2 mg/kg, iv; type: ADME, organism-based; conditions: in vivo
[36] = Volume of distribution at steady state in rat at 5 mg/kg, po and 2 mg/kg, iv; type: ADME, organism-based; conditions: in vivo, read-out: Vdss
[37] = Half life in human liver microsomes at 2 uM; type: ADME

pIC50 [1]: > 5.00
pIC50 [2]: > 5.00
pIC50 [3]: > 5.00
pIC50 [4]: > 5.00
pIC50 [5]: > 5.00
pIC50 [6]: > 5.00
pIC50 [7]: > 5.00
pIC50 [8]: > 5.00
Compound: Cn1c(-c2ccccn2)c(C2CCCC2)c2ccc(C(=O)NC3(C(=O)Nc4ccc(/C=C/C(=O)O)cc4)CCC3)cc21 [BILB-1941]

bioavailability [9]: 12%
pIC50 [10]: 5.22
AUC [11]: 1.2 µM·h
clearance [12]: 13.1 mL/min/kg
pIC50 [1]: 5.89
Vd [13]: 0.4 L/kg
half-life [14]: 2.3 h
Cmax [15]: 3.6 µM
pIC50 [3]: 5.22
clearance [16]: 13.9 mL/min/kg
AUC [17]: 21 µM·h
clearance [18]: 4.6 mL/min/kg
Vd [19]: 0.48 L/kg
Cmax [20]: 7.2 µM
pEC50 [21]: 7.64
half-life [22]: 0.7 h
pIC50 [5]: 5.22
logD [23]: 3.5
Cmax [24]: 3.6 µM
half-life at 2 µM [25]: 1.3 h
logD [26]: 3.5
pEC50 [27]: 8.30
half-life at 2 µM [28]: 3.13 h
AUC [29]: 7.2 µM·h
bioavailability [30]: 69%
half-life [31]: 2.8 h
half-life at 2 µM [32]: 0.217 h
Kp [33]: 13.5
Cmax [34]: 0.44 µM
bioavailability [35]: 71%
Vd [36]: 1.43 L/kg
half-life at 2 µM [37]: 1.5 h
Compound: CCOc1nc(NC(=O)C(C)(C)NC(=O)c2ccc3c(C4CCCC4)c(-c4ccc(F)cn4)n(C)c3c2)ccc1/C=C/C(=O)O
